Our source for the IC50 and EC50 values is patent US7452997B2 (priority 2004, dated 2008).

Read-outs that look alike come from different tables or passages of the source.

Experiment [1] deals with T1, human CB1 receptor (Homo sapiens, UniProt P21554).
T1 construct: expressed in transfected cells; host or cells: SK-N-MC cells, stably transfected with pcDNA3 CB-1 (human); semi-purified membrane pellet
Description: biochemical. The class given is binding. The procedure, abridged: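 Membranes from SK-N-MC cells stably expressing human CB1, incubated 90 minutes at 30° C in Tris-HCl buffer with MgCl2, EDTA and fatty acid free BSA, pH 7.5. Bound counts collected by filtration and scintillation counting; IC50 from linear regression over varying compound concentrations.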

Experiment [2] addresses T1, human CB1 receptor. Briefly: Functional cell-based assay, CB1 receptor mediated change in CRE β-gal expression (agonist / inverse agonist). The text has this: (§1) Functional Cell-Based Assay for CB1 or CB2 Agonist and Inverse Agonist Effects on Intra-Cellular Adenylate Cyclase Activity
(§2) The CB1 and CB2 receptors are G-protein coupled receptors (GPCR) which influence cell function via the Gi-protein. These receptors modulate the activity of intracellular adenylate cyclase which in turn produces the intracellular signal messenger cyclic-AMP (cAMP).
(§3) At baseline, or during non-ligand bound conditions, these receptors are constitutively active and tonically suppress adenylate cyclase activity. The binding of an agonists causes further receptor activation and produces additional suppression of adenylate cyclase activity. The binding of an inverse agonist inhibits the constitutive activity of the receptors and results in an increase in adenylate cyclase activity.
(§4) By monitoring intracellular adenylate cyclase activity, the ability of compounds to act as agonists or inverse agonists can be determined.
(§5) Test compounds were evaluated in SK-N-MC cells which, using standard transfection procedures, were stably transfected with human cDNA for pcDNA3-CRE β-gal and pcDNA3 CB1 receptor (human) or pcDNA3 CB2 receptor (human). By expressing CRE β-gal, the cells produced β-galactosidase in response to CRE promoter activation by cAMP. Cells expressing CRE β-gal and either the human CB1 or CB2 receptor will produce less β-galactosidase when treated with a CB1/CB2 agonist and will produce more β-galactosidase when treated with a CB1/CB2 inverse agonist.
(§6) The cells were grown in 96-well plates under standard cell culture conditions at 37° C. in a 5% CO2 atmosphere. After 3 days, the media was removed and a test compound in media (wherein the media was supplemented with 2 mM L-glutamine, […] sodium pyruvate, 0.1% low fatty acid FBS (fetal bovine serum) and antibiotics) was added to the cell. The plates were incubated for 30 minutes at 37° C. and the plate cells were then treated with forskolin over a 4-6 hour period, then washed and lysed. The β-galactosidase activity was quantitated using commercially available kit reagents (Promega Corp. Madison, Wis.) and a VMAX Plate Reader (Molecular Devices, Inc).
(§7) The change in β-galactosidase activity was determined by setting a vehicle treated cell's activity value at 100% and expressing the β-galactosidase activity measured in a corresponding compound treated cell as a percent of the vehicle treated cell activity.
(§8) The EC50 values for compounds tested were calculated by linear regression and were obtained from studies in which varying compound concentrations were used.

The target of experiment [3] is T2, human CB2 receptor (Homo sapiens, UniProt P34972). Description: Binding assay, cannabinoid CB2 receptor ([3H]-CP-55,940 displacement). The note with it: SK-N-MC cell membranes, radioligand CP-55,940 0.2 nM. The procedure, abridged:
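Membranes from SK-N-MC cells stably expressing human CB2, incubated with test compound and 0.2 nM [3H]-CP-55,940 for 90 min at 30 °C in Tris buffer pH 7.5 with fatty-acid-free BSA. Nonspecific binding defined with 10 uM WIN 55,212; filtration and scintillation counting, IC50 by linear regression.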

Experiment [4] addresses T2, human CB2 receptor. Description: Functional cell-based assay, CB2 receptor mediated change in CRE β-gal expression (agonist / inverse agonist). Conditions: SK-N-MC cells, forskolin.
Source text: as §1, §2, §3, §4, §5, §6
For cells expressing CRE β-gal and the CB2 receptor, CB2 agonists reduced β-galactosidase activity in a dose-dependent manner and CB2 inverse agonists increased β-galactosidase activity in a dose-dependent manner.
as §7, §8

Where [5] appears, read: Cannabinoid CB2 Receptor Binding IC50, human CB2 receptor.
Where [6] appears, read: inverse agonist, read-out: CB2 Receptor Functional Inverse Agonist EC50.

T1 sequence (P21554 whole entry): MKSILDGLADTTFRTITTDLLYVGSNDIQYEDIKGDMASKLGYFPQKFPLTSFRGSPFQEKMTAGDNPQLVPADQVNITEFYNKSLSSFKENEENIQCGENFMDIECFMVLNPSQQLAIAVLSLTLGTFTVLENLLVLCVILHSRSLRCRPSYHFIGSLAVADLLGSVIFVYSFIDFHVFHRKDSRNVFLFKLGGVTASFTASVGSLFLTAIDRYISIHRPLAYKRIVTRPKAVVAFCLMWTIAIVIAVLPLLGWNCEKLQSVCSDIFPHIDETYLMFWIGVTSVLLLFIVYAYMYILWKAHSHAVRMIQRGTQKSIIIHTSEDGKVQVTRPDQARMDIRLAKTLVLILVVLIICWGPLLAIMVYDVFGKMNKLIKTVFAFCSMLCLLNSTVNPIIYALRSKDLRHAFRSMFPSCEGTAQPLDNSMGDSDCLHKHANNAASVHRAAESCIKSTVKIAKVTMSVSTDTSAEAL
T2 sequence (P34972 whole entry): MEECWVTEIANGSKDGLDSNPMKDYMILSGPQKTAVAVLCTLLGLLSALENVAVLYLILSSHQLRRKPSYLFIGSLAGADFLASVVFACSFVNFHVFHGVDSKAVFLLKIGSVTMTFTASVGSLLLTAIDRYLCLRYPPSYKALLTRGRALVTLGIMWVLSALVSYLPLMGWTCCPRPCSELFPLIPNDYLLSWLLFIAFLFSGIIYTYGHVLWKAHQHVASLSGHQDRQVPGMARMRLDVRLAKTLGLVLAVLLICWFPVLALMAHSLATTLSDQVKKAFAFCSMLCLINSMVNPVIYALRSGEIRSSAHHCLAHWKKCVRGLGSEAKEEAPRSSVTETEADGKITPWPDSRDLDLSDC

As usually defined, the IC50 is the point on the concentration scale where inhibition reaches its midpoint. Usually EC50 stands for the concentration needed to bring the measured effect to its halfway point. With `COc1ccc(-n2nc(C(=O)NCCc3ccc(N)cc3)c3c2CCCC3)cc1` [compound 7], the IC50 at human CB1 receptor [1] (human CB1 receptor, SK-N-MC cell membranes, radioligand CP-55,940 0.2 nM, read-out: Cannabinoid CB1 Receptor Binding IC50) came out at 3100 nM; at human CB2 receptor [3] (human CB2 receptor, read-out: Cannabinoid CB2 Receptor Binding IC50), 3570 nM. The EC50 at human CB1 receptor [2] (SK-N-MC cells, CRE β-gal, human CB1 receptor, forskolin, inverse agonist, read-out: CB1 Receptor Functional Inverse Agonist EC50) was found to be 3880 nM.

Take `COc1ccc(-n2nc(C(=O)NC3C4(C)CCC(C4)C3(C)C)c3c2CCCC3)cc1` (centres unmarked) [compound 9]: the values for the IC50 on human CB1 receptor [1] and at human CB2 receptor [3] (setting [5]) were 338 nM and 11.9 nM, respectively. The same compound came in with an EC50 on human CB1 receptor [2] of 2750 nM.

For the compound `CCOC(=O)C1C2CCC(C2)C1NC(=O)c1nn(C2CCCCC2)c2c1CCCC2` (centres unmarked) [compound 28], the IC50 against human CB1 receptor [1] was found to be 850 nM; on human CB2 receptor [3] (setting [5]) it was 7.5 nM. Also, the EC50 on human CB2 receptor [4] (agonist, read-out: CB2 Receptor Functional Agonist EC50) amounted to 330 nM; at human CB1 receptor [2] it was 2030 nM.

In the case of `CCOC(=O)[C@@H]1CCCC[C@@H]1NC(=O)c1nn(-c2ccc(F)cc2)c2c1CCCC2` [compound 33], the IC50 against human CB1 receptor [1] is 58 nM; on human CB2 receptor [3] (setting [5]), 8 nM. Also, the EC50 at human CB1 receptor [2] was 135 nM.

On to `CCOC(=O)C1C2CCC(C2)C1NC(=O)c1nn(Cc2ccccc2)c2c1CCCC2` (centres unmarked) [compound 43], for which the figures for the IC50 against human CB1 receptor [1] and at human CB2 receptor [3] (setting [5]) were 14 nM and 1 nM, respectively. The EC50 at human CB1 receptor [2] was found to be 295 nM.

`CCOC(=O)C1CCc2c(c(C(=O)NC3C4(C)CCC(C4)C3(C)C)nn2C2CCCCC2)C1` (centres unmarked) [compound 67]: the values for the concentration for half-maximal inhibition (IC50) against human CB1 receptor [1] and on human CB2 receptor [3] (setting [5]) were 300 nM and 15.5 nM, respectively. Further, the EC50 on human CB2 receptor [4] (setting [6]) came out at 23 nM; at human CB1 receptor [2], 524 nM.

As for `CCOC(=O)C1CCc2c(C(=O)NC3C4(C)CCC(C4)C3(C)C)nn(C3CCCCC3)c2C1` (centres unmarked) [compound 70], the half-maximal inhibitory concentration (IC50) against human CB1 receptor [1] came to 125 nM; at human CB2 receptor [3] (setting [5]), 16 nM. The EC50 at human CB2 receptor [4] (setting [6]) is 45.9 nM; at human CB1 receptor [2] it was 1000 nM.

As to `CCOC(=O)C1CCCc2c1c(C(=O)NC1C3(C)CCC(C3)C1(C)C)nn2C1CCCCC1` (centres unmarked) [compound 73], the values for the IC50 on human CB1 receptor [1] and at human CB2 receptor [3] (setting [5]) were 760 nM and 295 nM, respectively. On human CB1 receptor [2], this compound displayed an EC50 of 1740 nM.

Regarding `CC12CCC(C1)C(C)(C)C2NC(=O)c1nn(-c2ccc(F)cc2)c2c1CCCC2c1ccccc1` (centres unmarked) [compound 144], the results for the IC50 against human CB1 receptor [1] and on human CB2 receptor [3] (setting [5]) were 220 nM and 40 nM, respectively. The compound also had a half-maximal effective concentration (EC50) at human CB1 receptor [2] of 176 nM.

Consider `CCOC(=O)[C@H]1C2CCC(C2)[C@H]1NC(=O)c1nn(-c2ccc(F)cc2)c2c1CCCC2c1ccccc1` (some centres unmarked) [compound 147], for which the IC50 is 2080 nM on human CB1 receptor [1] and 1790 nM at human CB2 receptor [3] (setting [5]). This compound also returned an EC50 at human CB1 receptor [2] of 152 nM.

For the compound `CC12CCC(C1)C(C)(C)C2NC(=O)c1nn(-c2ccc(F)cc2)c2c1CCCC2CCc1ccccc1` (centres unmarked) [compound 151], the IC50 against human CB1 receptor [1] amounted to 590 nM; at human CB2 receptor [3] (setting [5]), 30 nM. At human CB1 receptor [2], this compound gave an EC50 of 801 nM.

In the case of `CCNC(=O)[C@@H]1C2CCC(C2)[C@@H]1NC(=O)c1nn(Cc2ccccc2)c2c1CCCC2` (some centres unmarked) [compound 167], the values for the IC50 against human CB1 receptor [1] and on human CB2 receptor [3] (setting [5]) were 1660 nM and 28 nM, respectively. This compound also came in with an EC50 on human CB1 receptor [2] of 3360 nM.

As to `CCOC(=O)[C@@H]1CCc2c(c(C(=O)NC3C4(C)CCC(C4)C3(C)C)nn2-c2ccccc2)C1` (some centres unmarked) [compound 220], the EC50 was found to be 220 nM at human CB2 receptor [4] (setting [6]) and 399 nM on human CB1 receptor [2]. Also, the IC50 on human CB2 receptor [3] (setting [5]) was 230 nM.

As to `CCOC(=O)C1CCc2c(c(C(=O)NC3C4CC5CC(C4)CC3C5)nn2C2CCCCC2)C1` (centres unmarked) [compound 222], the 50% inhibitory concentration (IC50) at human CB1 receptor [1] came to 280 nM; at human CB2 receptor [3] (setting [5]), 4.9 nM. The 50% effective concentration (EC50) at human CB2 receptor [4] (setting [6]) was determined as 33 nM; on human CB1 receptor [2], 194 nM.

In the case of `CCOC(=O)C1CCc2c(c(C(=O)NC3C4CC5CC(C4)CC3C5)nn2Cc2ccccc2)C1` (centres unmarked) [compound 226], the values for the concentration for half-maximal inhibition (IC50) against human CB1 receptor [1] and at human CB2 receptor [3] (setting [5]) were 7.9 nM and 5.5 nM, respectively. Also, the EC50 is 65 nM on human CB2 receptor [4] (setting [6]) and 520 nM on human CB1 receptor [2].

Take `CC(NC(=O)c1nn(Cc2ccccc2)c2c1CCCC2c1ccccc1)c1ccccc1` (centres unmarked) [compound 253]: the IC50 at human CB1 receptor [1] amounted to 25 nM; on human CB2 receptor [3] (setting [5]), 300 nM. On human CB1 receptor [2], this compound had an EC50 of 1940 nM.

For `CCOC(=O)C1CCc2c(c(C(=O)NC(C)c3ccccc3)nn2Cc2ccccc2)C1` (centres unmarked) [compound 256], the values for the IC50 against human CB1 receptor [1] and at human CB2 receptor [3] (setting [5]) were 260 nM and 300 nM, respectively. Besides, on human CB1 receptor [2], the EC50 turned out to be 250 nM.

Consider `O=C(NN1CCCCC1)c1nn(-c2ccc(Cl)cc2Cl)c2c1CCC/C2=C\c1ccc(Cl)cc1` [compound 290], for which the values for the IC50 against human CB1 receptor [1] and on human CB2 receptor [3] (setting [5]) were 25 nM and 1000 nM, respectively. The EC50 on human CB1 receptor [2] was 44 nM.

For the compound `O=C(NN1CCOCC1)c1nn(-c2ccc(Cl)cc2Cl)c2c1CCC/C2=C\c1ccc(Cl)cc1` [compound 291], the IC50 against human CB1 receptor [1] worked out at 180 nM; at human CB2 receptor [3] (setting [5]) it was 1700 nM. Also, the EC50 on human CB1 receptor [2] was determined as 10 nM.

In the case of `CC1(C)[C@@H]2CC[C@@](C)(C2)[C@H]1NC(=O)c1nn(-c2ccc(Cl)cc2Cl)c2c1CCC/C2=C\c1ccc(Cl)cc1` [compound 292], the values for the IC50 against human CB1 receptor [1] and at human CB2 receptor [3] (setting [5]) were 33 nM and 60 nM, respectively. This compound also registered an EC50 on human CB1 receptor [2] of 9 nM.

Take `C[C@@H](NC(=O)c1nn(-c2ccc(Cl)cc2Cl)c2c1CCC/C2=C\c1ccc(Cl)cc1)C1CCCCC1` [compound 293]: the IC50 is 6 nM against human CB1 receptor [1] and 600 nM on human CB2 receptor [3] (setting [5]). The compound also yielded an EC50 on human CB1 receptor [2] of 25 nM.

`C[C@H](NC(=O)c1nn(-c2ccc(Cl)cc2Cl)c2c1CCC/C2=C\c1ccc(Cl)cc1)c1ccccc1` [compound 294]: the IC50 at human CB1 receptor [1] was 110 nM; at human CB2 receptor [3] (setting [5]) it was 700 nM. On human CB1 receptor [2], this compound showed a concentration for a half-maximal effect (EC50) of 140 nM.

As for `C[C@H](NC(=O)/C=C/c1nn(Cc2ccccc2)c2c1CCCC2)c1ccccc1` [compound 305], the 50% inhibitory concentration (IC50) came to 9800 nM on human CB1 receptor [1] and 7200 nM at human CB2 receptor [3] (setting [5]). The EC50 at human CB1 receptor [2] is 630 nM.

As for `C[C@H](NC(=O)c1nn(-c2ccc(Cl)cc2Cl)c2c1CCCC2=Cc1ccc(Cl)cc1)C1CCCCC1` [compound 321], the IC50 on human CB1 receptor [1] turned out to be 230 nM; at human CB2 receptor [3] (setting [5]) it was 600 nM. Further, the response at human CB1 receptor [2] was half-maximal at 133 nM (EC50).

Turning to `CC12CCC(C1)C(C)(C)C2NC(=O)Nc1nn(Cc2ccccc2)c2c1CCCC2` (centres unmarked) [compound 338], the IC50 at human CB1 receptor [1] amounted to 1350 nM; on human CB2 receptor [3] (setting [5]), 27 nM. Besides, the midpoint of the response on human CB1 receptor [2], the EC50, lay at 6 nM.
